Results published in patent publication US9034871B2, “Compounds for Alzheimer's disease” (priority 2004, dated 2015).

test system: Aβ42; assay: Detection of secreted Aβ42 with Biosource ELISA kit in H4 cells expressing APP695; assay type: cell-based; settings: Ab42 lowering, cell based assay; read-out: Ab42 IC50
Method: The present invention provides compositions and methods for lowering Aβ42 levels. To test whether compounds and compositions are capable of modulating Aβ levels, a sandwich enzyme-linked immunosorbent assay (ELISA) is employed to measure secreted Aβ (Aβ42 and/or Aβ40) levels. In this example, H4 cells expressing wide type APP695 are seeded at 200,000 cells/per well in 6 well plates, and incubated at 37 degree C. with 5% CO2 overnight. Cells are treated with 1.5 ml medium containing vehicle (DMSO) or a test compound at 1.25 μM, 2.5 μM, 5.0 μM and 10.0 μM (as well as other concentration if desirable) concentration for 24 hours or 48 hours. The supernatant from treated cells is collected into eppendorf tubes and frozen at −80 degree C. for future analysis.
The amyloid peptide standard is reconstituted and frozen samples are thawed. The samples and standards are diluted with appropriate diluents and the plate is washed 4 times with Working Wash Buffer and patted dry on a paper towel. 100 μL per well of peptide standards, controls, and dilutions of samples to be analyzed is added. The plate is incubated for 2 hours while shaking on an orbital plate shaker at RT. The plate is then washed 4 times with Working Wash Buffer and patted dry on a paper towel. Detection Antibody Solution is poured into a reservoir and 100 μL /well of Detection Antibody Solution is immediately added to the plate. The plate is incubated at RT for 2 hours while shaking and then washed four times with Working Wash Buffer and patted dry on a paper towel. Secondary Antibody Solution is then poured into a reservoir and 100 μL /well of Secondary Antibody Solution is immediately added to the plate. The plate is incubated at RT for 2 hours with shaking, washed 5 times with Working Wash Buffer, and patted dry on a paper towel.
100 μL of stabilized chromogen is added to each well and the liquid in the wells begins to turn blue. The plate is incubated for 30 minutes at room temperature and in the dark. 100 μL of stop solution is added to each well and the plate is tapped gently to mix resulting in a change of solution color from blue to yellow. The absorbance of each well is read at 450 nm having blanked the plate reader against a chromogen blank composed of 100 μL each of stabilized chromogen and stop solution. The plate is read within 2 hours of adding the stop solution. The absorbance of the standards is plotted against the standard concentration and the concentrations of unknown samples and controls are calculated.
These compounds were synthesized via the indicated synthetic route. Ab42 IC50 (uM) refers to IC50 value for Ab42 lowering in e.g., the assay described in Example 6.

Going from `O=C(O)CCCc1ccc(-n2c(-c3ccc4c(c3)OCO4)cc3c4ccccc4ccc32)cc1` to `O=C(O)c1cccc(-n2c(-c3ccc4c(c3)OCO4)cc3c4ccccc4ccc32)c1` [3-(2-benzo[1,3]dioxol-5-yl-benzo[e]indol-3-yl) benzoic acid], the IC50 rises from 8.9 µM to 20 µM (2.2-fold). The first is the more potent here.

`Cc1onc(-c2ccccc2)c1-c1cc2c3ccccc3ccc2n1-c1cccc(-c2nn[nH]n2)c1` and `Cc1onc(-c2ccccc2)c1-c1cc2c3ccccc3ccc2n1-c1cccc(C(=O)O)c1` [3-[2-(5-methyl-3-phenylisoxazol-4-yl)-benzo[e]indol-3-yl] benzoic acid] are within 1.5-fold of each other in IC50: 31 µM for the first, 40 µM for the second.

Compared with `c1ccc(-c2cc3c(n2-c2cccc(-c4nn[nH]n4)c2)CCCC3)cc1`, `c1cncc(-c2cc3c(n2-c2cccc(-c4nn[nH]n4)c2)CCc2ccccc2-3)c1` [2-pyridin-3-yl-3-[3-(2H-tetrazol-5-yl)-phenyl]-4,5-dihydro-3H-benzo[e]indole] is higher in IC50: 100 µM for the first, > 100 µM for the second.

`CC1CCc2c(cc(-c3ccccc3)n2-c2nc(C(=O)O)cs2)C1` (stereo not drawn) [2-(5-methyl-2-phenyl-4,5,6,7-tetrahydroindol-1-yl) thiazole-4-carboxylic acid] and `COc1ccc(-c2cc3c(n2-c2nc(C(=O)O)cs2)CCC(C(F)(F)F)C3)cc1OC` (stereo not drawn) [2-[2-(3,4-dimethoxyphenyl)-5-trifluoromethyl-4,5,6,7-tetrahydroindol-1-yl]-thiazole-4-carboxylic acid] cannot be ordered by IC50: > 100 µM for the first, > 100 µM for the second.

Going from `COc1ccc(-c2cc3c(n2-c2nc(C(=O)O)cs2)CCC(C(F)(F)F)C3)c(OC)c1` (stereo not drawn) [2-[2-(2,4-dimethoxyphenyl)-5-trifluoromethyl-4,5,6,7-tetrahydroindol-1-yl]-thiazole-4-carboxylic acid] to `O=C(O)c1ccc(-n2c(-c3cc4ccccc4o3)cc3c2CCC(C(F)(F)F)C3)o1` (stereo not drawn) [5-(2-benzofuran-2-yl-5-trifluoromethyl-4,5,6,7-tetrahydroindol-1-yl)-furan-2-carboxylic acid], the IC50 falls from > 100 µM to 44 µM.

Going from `c1cc(-c2nn[nH]n2)cc(-n2c(-c3ccc4c(c3)OCO4)cc3c4ccccc4ccc32)c1` [2-benzo[1,3]dioxol-5-yl-3-[3-(2H-tetrazol-5-yl)-phenyl]-3H-benzo[e]indole] to `c1cc(-c2nn[nH]n2)cc(-n2c(-c3ccsc3)cc3c4ccccc4ccc32)c1` [3-[3-(2H-tetrazol-5-yl)-phenyl]-2-thiophen-3-yl-3H benzo[e]indole], the IC50 falls from 56 µM to 31 µM (1.8-fold).

First: c1cc(-c2nn[nH]n2)cc(-n2c(-c3cc4ccccc4o3)cc3c2CCc2ccccc2-3)c1 [2-benzofuran-2-yl-3-[3-(2H-tetrazol-5-yl)-phenyl]-4,5-dihydro-3H-benzo[e]indole]
Second: c1ccc(-c2cc3c(n2-c2cccc(-c4nn[nH]n4)c2)CCc2ccccc2-3)nc1 [2-pyridin-2-yl-3-[3-(2H-tetrazol-5-yl)-phenyl]-4,5-dihydro-3H-benzo[e]indole]
The IC50 of the first is 4.6-fold lower: 9.3 µM for the first, 43 µM for the second.

`c1ccc(-c2cc3c4ccccc4ccc3n2-c2cccc(-c3nn[nH]n3)c2)nc1` [2-pyridin-2-yl-3-[3-(2H-tetrazol-5-yl)-phenyl]-3H-benzo[e]indole] and `c1cncc(-c2cc3c4ccccc4ccc3n2-c2cccc(-c3nn[nH]n3)c2)c1` [2-pyridin-3-yl-3-[3-(2H-tetrazol-5-yl)-phenyl]-3H-benzo[e]indole] are within 1.5-fold of each other in IC50: 32 µM for the first, 46 µM for the second.

`c1cc(-c2nn[nH]n2)cc(-n2c(-c3ccncc3)cc3c2CCc2ccccc2-3)c1` [2-pyridin-4-yl-3-[3-(2H-tetrazol-5-yl)-phenyl]-4,5-dihydro-3H-benzo[e]indole] and `O=C(O)c1cccc(-n2c(-c3ccncc3)cc3c2CCc2ccccc2-3)c1` [3-(2-pyridin-4-yl-4,5-dihydrobenzo[e]indol-3-yl) benzoic acid] are within 1.5-fold of each other in IC50: 73 µM for the first, 65 µM for the second.

Compared with `O=C(O)c1cccc(-n2c(-c3ccc4c(c3)OCO4)cc3c2CCc2ccccc2-3)c1` [3-(2-benzo[1,3]dioxol-5-yl-4,5-dihydrobenzo[e]indol-3-yl) benzoic acid], `O=C(O)CCCc1ccc(-n2c(-c3ccc4c(c3)OCO4)cc3c2CCc2ccccc2-3)cc1` [4-[4-(2-benzo[1,3]dioxol-5-yl-dihydrobenzo[e]indol-3-yl)-phenyl] butyric acid] is 2-fold lower in IC50: 18 µM for the first, 8.8 µM for the second.

First: O=C(O)c1cccc(-n2c(-c3cc4ccccc4o3)cc3c2CCc2ccccc2-3)c1 [3-(2-benzofuran-2-yl-4,5-dihydrobenzo[e]indol-3-yl) benzoic acid]
Second: O=C(O)c1cccc(-n2c(-c3ccccn3)cc3c2CCc2ccccc2-3)c1 [3-(2-pyridin-2-yl-4,5-dihydrobenzo[e]indol-3-yl) benzoic acid]
The IC50 of the first is 120-fold lower: 0.56 µM for the first, 70 µM for the second.

Compared with `O=C(O)c1cccc(-n2c(-c3cc4ccccc4o3)cc3c4ccccc4ccc32)c1` [3-(2-benzofuran-2-yl-benzo[e]indol-3-yl) benzoic acid], `O=C(O)c1ccc(-n2c(-c3cc4ccccc4o3)cc3c4ccccc4ccc32)o1` [5-(2-benzofuran-2-yl-benzo[e]indol-3-yl) furan-2-carboxylic acid] is 19-fold higher in IC50: 1.17 µM for the first, 22 µM for the second. The first is the more potent here.

Going from `O=C(O)c1cccc(-n2c(-c3ccccc3)cc3c2CC(c2ccccn2)CC3)c1` (stereo not drawn) [3-(2-phenyl-6-pyridin-2-yl-4,5,6,7-tetrahydroindol-1-yl) benzoic acid] to `O=C(O)c1cccc(-n2c(-c3cccnc3)cc3c2CCc2ccccc2-3)c1` [3-(2-pyridin-3-yl-4,5-dihydrobenzo[e]indol-3-yl) benzoic acid], the IC50 rises from 70.8 µM to > 100 µM. The first is the more potent here.

Compared with `O=C(O)c1cccc(-n2c(-c3ccccn3)cc3c4ccccc4ccc32)c1` [3-(2-pyridin-2-yl-benzo[e]indol-3-yl) benzoic acid], `O=C(O)c1cccc(-n2c(-c3cccnc3)cc3c4ccccc4ccc32)c1` [3-(2-pyridin-3-yl-benzo[e]indol-3-yl) benzoic acid] is higher in IC50: 79 µM for the first, > 100 µM for the second.

Going from `O=C(O)c1cccc(-n2c(-c3ccncc3)cc3c4ccccc4ccc32)c1` [3-(2-pyridin-4-yl-benzo[e]indol-3-yl) benzoic acid] to `O=C(O)c1cccc(-n2c(-c3ccsc3)cc3c4ccccc4ccc32)c1` [3-(2-thiophen-3-yl-benzo[e]indol-3-yl) benzoic acid], the IC50 falls from 81 µM to 13.2 µM (6.1-fold).

`O=C(O)c1cccc(-n2nc(-c3ccccc3)cc2-c2ccccc2)c1` [3-(3,5-diphenyl-pyrazol-1-yl)-benzoic acid] and `O=C(O)c1cccc(-c2cc3c(n2-c2cccnc2)CCc2ccccc2-3)c1` [3-(3-pyridin-3-yl-4 5-dihydro-3H-benzo[e]indol-2-yl) benzoic acid] cannot be ordered by IC50: > 100 µM for the first, > 100 µM for the second.

`O=C(O)c1cccc(-c2cc3c4ccccc4ccc3n2-c2ccoc2)c1` [3-(3-furan-3-yl-3H-benzo[e]indol-2-yl) benzoic acid] and `O=C(O)c1ccc(-c2cc3c4ccccc4ccc3n2-c2ccoc2)cc1` [4-(3-furan-3-yl-3H-benzo[e]indol-2-yl) benzoic acid] cannot be ordered by IC50: > 100 µM for the first, > 100 µM for the second.

First: CCC(C)(C)C1CCc2c(cc(-c3cc4ccccc4o3)n2-c2cccc(C(=O)O)c2)C1 (stereo not drawn) [3-[2-benzofuran-2-yl-5-(1,1-dimethylpropyl) 4,5,6,7-tetrahydroindol-1-yl] benzoic acid]
Second: O=C(O)c1ccc(-n2c(-c3cc4ccccc4o3)cc3c2CC(C(F)(F)F)CC3)o1 (stereo not drawn) [5-(2-benzofuran-2-yl-6-trifluoromethyl-4,5,6,7-tetrahydroindol-1-yl)-furan-2-carboxylic acid]
The IC50 of the first is 6.2-fold lower: 3.7 µM for the first, 23 µM for the second. The first is the more potent here.

Compared with `O=C(O)c1cccc(-n2c(-c3ccc(-c4ccc(Cl)cc4Cl)o3)cc3c4ccccc4ccc32)c1` [3-{2-[5-(2,4-dichlorophenyl)-furan-2-yl]-benzo[e]indol-3-yl} benzoic acid], `O=C(O)CCCc1ccc(-n2c(-c3ccc(-c4ccc(Cl)cc4Cl)o3)cc3c4ccccc4ccc32)cc1` [4-(4-{2-[5-(2 4-dichlorophenyl)-furan-2-yl]-benzo[e]indol-3-yl}-phenyl) butyric acid] is 1.9-fold lower in IC50: 33 µM for the first, 17 µM for the second.

Compared with `O=C(O)c1ccc(-c2cc3c(n2-c2cccnc2)CCc2ccccc2-3)cc1` [4-(3-pyridin-3-yl-4,5-dihydro-3H-benzo[e]indol-2-yl) benzoic acid], `Cc1onc(-c2ccccc2)c1-c1cc2c(n1-c1ccc(CCCC(=O)O)cc1)CCc1ccccc1-2` [4-{4-[2-(5-methyl-3-phenylisoxazol-4-yl)-4,5-dihydrobenzo[e]indol-3-yl]-phenyl} butyric acid] is lower in IC50: > 100 µM for the first, 1.5 µM for the second.

Compared with `O=C(O)CCCc1ccc(-n2c(-c3cc(-c4ccccc4)no3)cc3c4ccccc4ccc32)cc1` [4-{4-[2-(3-phenylisoxazol-5-yl)-benzo[e]indol-3-yl]-phenyl} butyric acid], `Cc1onc(-c2ccccc2)c1-c1cc2c3ccccc3ccc2n1-c1ccc(CCCC(=O)O)cc1` [4-{4-[2-(5-methyl-3-phenylisoxazol-4-yl)-benzo[e]indol-3-yl]-phenyl} butyric acid] is 4.5-fold lower in IC50: 4.5 µM for the first, 1 µM for the second.
